Laboratory results: US11225657B2, “Synthetic auxotrophs with ligand dependent essential genes for biosafety” (priority 2015, dated 2022)

Assays:
Assay type in all cases: cell-based, E. coli
metG.GL15 = test: Chemical complementation of growth of ligand-dependent strain metG.GL15; settings: panel of 30 additional ligands
Description: (§1) A second positive selection at block 140 was performed in order to enrich for desirable ligand-dependent strains. Library members surviving the negative selection were collected, residual penicillin was washed away, and cells were spread onto LB agar plates containing complementing chemicals. Resulting colonies were screened at block 150 for ligand-dependent growth by replica-spotting onto LB agar plates with and without complementing chemicals. Strains that grew only in the presence of chemicals were chosen for further characterization.
(§2) In this example, the ligand-dependent strains were generated for 5 essential genes (pheS, dnaN, tyrS, metG, and adk). Each ligand-dependent strain carried between 3 and 7 mutations at the targeted essential gene (Table 1). A mixture of 4 small molecules was used to generate the ligand-dependent strains. Each resulting strain was tested against each small molecule individually. The most promiscuous strain, metG.GL15, was complemented by all 4 ligands. Other mutants responded to 2 or 3 ligands. Additionally, escape frequency was measured on media lacking any of the 4 ligands. The highest escape frequency was 8×10^−4 for adk.GL1, while the lowest escape frequency was 3×10^−9 for pheS.GL2.
To characterize the specificity of the produced ligand-dependent strains towards ligands, all strains were examined for complementation by a panel of 30 additional ligands. […]

[1] = test system: dnaN-intein-iFKBP fusion mutants; test: Growth of dnaN-intein-iFKBP mutants with complementing ligands at 42° C.; settings: LB agar
Description: A variety of saturation mutagenesis libraries targeting a combination of surface exposed and semi-buried residues on the intein structure were then designed, ignoring the iFKBP domain as well as the dnaN sequence. The resulting plasmid library was then transformed into dnaN-temperature sensitive strains (dnaN-temp sensitive on the genome). The resulting transformants were grown on LB agar plates containing 5 chemicals: rapamycin, saccharin, acetaminophen, raspberry ketone, and benzothiazole. These chemicals were chosen based on being either useful commercially or likely to result in the desired phenotype. As before the library was grown at 42° C. so that the strains would have to rely on the plasmid borne mutagenized copies of the dnaN-intein-iFKBP fusion proteins.
The next day the libraries were scraped, and transferred to fresh media for a penicillin technique counter selection performed exactly as described before with FIG. 2 and FIG. 3. After the negative selection, intact cells were mini-prepped and the DNA was re-transformed into fresh cells and the transformants were grown on the same chemicals as indicated above at 42° C.
The next day, colonies were picked, serially diluted tenfold and spotted onto plain LB agar plates and LB agar plates containing a pool of candidate complementing ligands and grown at 42° C. (to uncover phenotype of plasmid born copy of dnaN). […]

[2] = test system: rapamycin-dependent mutant (uniRapR insertion in dnaN); test: Ligand-dependent growth of rapamycin-dependent dnaN-uniRapR insertion mutant at 42° C.; settings: for nonspecific chemical complementation (growth): plates with ligand instead of rapamycin
Text: Starting with a plasmid borne copy of wild type dnaN under constitutive expression, the uniRapR domain was inserted into 4 candidate insertion sites with a 3 amino acid linker library upstream and downstream of the uniRapR domain. The resulting libraries (all four insertion sites with their linker libraries) were pooled and transformed into a strain of E. coli with a mutation on the genomic copy of dnaN that made the protein temperature sensitive (dnaN protein from genome is non-functional at 42° C. and it is bactericidal lethal).
The transformants were grown at 42° C. (lethal temperature for genomic copy so as to force bacteria to rely on the plasmid copies with the uniRapR insertions) as well as with the addition of 10 uM rapamycin (to complement the function of any rapamycin-dependent insertional fusion dnaN mutants) and allowed to grow overnight.
The extracted plasmid DNA was re-transformed into fresh dnaN-temperature sensitive strains and grown on LB agar supplemented with rapamycin at 42° C. The next day colonies were picked and re-spotted onto LB agar plates with or without rapamycin and grown at 42° C. […] The biological replicates of a 10-fold serial dilution of the rapamycin-dependent mutant grown without rapamycin (clear columns) or with 2.5 micromolar rapamycin (columns with growth) were prepared. All growth took place at 42° C.

pheS.GL2 = test: Chemical complementation of growth of ligand-dependent strain pheS.GL2; settings: LB agar plates
Description: as §1, §2
The ligand-dependent strain pheS.GL2 was derived from a directed evolution procedure using both targeted and random mutagenesis. […]

tyrS.GL7 = test: Chemical complementation of growth of ligand-dependent strain tyrS.GL7
Description: as §1, §2
The ligand-dependent strain tyrS.GL7 and metG.GL15 were generated in under 2 weeks with a single cycle of protein engineering. […]

O=C(O)Cc1c[nH]c2ccccc12 [Indole-3-acetic acid]
complementation of growth (metG.GL15): complement

COC(=O)[C@@H](N)Cc1c[nH]cn1 [L-histidine methyl ester]
complementation of growth (metG.GL15): complement

c1ccc2scnc2c1 [benzothiazole]
colony size relative to no ligand (by eye) [1]: 2-5 times
nonspecific chemical complementation (growth) [2]: no growth was detected
complementation of growth (pheS.GL2; 1 mM benzothiazole): strongly complemented
concentration range of dose-dependent growth (tyrS.GL7): 250 to 1000 µM

c1ccc2[nH]ccc2c1 [indole]
nonspecific chemical complementation (growth) [2]: no growth was detected
complementation of growth (pheS.GL2; 0.5 mM indole): strongly complemented
complementation of growth (tyrS.GL7): complemented

CO[C@H]1C[C@@H]2CC[C@@H](C)[C@@](O)(O2)C(=O)C(=O)N2CCCC[C@H]2C(=O)O[C@H]([C@H](C)C[C@@H]2CC[C@@H](O)[C@H](OC)C2)CC(=O)[C@H](C)/C=C(\C)[C@@H](O)[C@@H](OC)C(=O)[C@H](C)C[C@H](C)/C=C/C=C/C=C/1C [rapamycin]
rapamycin concentration of highest activity (dose-dependent growth) ([2]; 42° C.): 1 to 10 µM
